Experimental data as given in ChEMBL document CHEMBL5370683, “Peptide-to-Small Molecule: Discovery of Non-Covalent, Active-Site Inhibitors of β-Herpesvirus Proteases” (ACS Med Chem Lett, 2023).
Peptide text beside a SMILES is read from it.

What was measured:
[1] = Inhibition of N-terminal 6 His-tagged HHV6 protease P12A mutant (2 to 230 residues) expressed in Escherichia coli BL21 cells using 5FAM-KPSILNASLTPETVKK as peptide substrate incubated for 3 hrs by fluorescence based analysis; design: species or system Human betaherpesvirus 6
[2] = Inhibition of amino terminal GST tagged HCMV protease P12A mutant (1 to 256 residues) expressed in Escherichia coli BL21 (DE3) cells using 5-carboxyfluorescein [FAM]-RGVVNASSRLAK as peptide substrate incubated for 3 hrs by fluorescence based analysis; design: species or system Human betaherpesvirus 5
[3] = Inhibition of N-terminal 6 His-tagged HHV6 protease (2 to 230 residues) expressed in Escherichia coli BL21 cells using 5FAM-KPSILNASLTPETVKK as peptide substrate incubated for 3 hrs by fluorescence based analysis; design: species or system Human betaherpesvirus 6
Human betaherpesvirus 5 = assay: Antiviral activity against HCMV infected in HFF cells assessed as reduction in viral replication; format: functional, organism-based; settings: Human betaherpesvirus 5, HFF
[4] = Apparent permeability across apical to basolateral side in LLC-PK1 cells at 2 uM incubated for 2 hrs by LC/MS/MS method; format: ADME, cell-based, Sus scrofa; settings: pig
[5] = Inhibition of amino terminal GST tagged HCMV protease (1 to 256 residues) expressed in Escherichia coli BL21 (DE3) cells using 5-carboxyfluorescein [FAM]-RGVVNASSRLAK as peptide substrate incubated for 3 hrs by fluorescence based analysis; design: species or system Human betaherpesvirus 5
[6] = Cytotoxicity against HFF cells assessed as inhibition in cell viability incubated for 5 days by luminescence based analysis; format: toxicity; settings: human, time 5 day
[7] = Inhibition of N-terminal 6 His-tagged HHV6 protease L11A mutant (2 to 230 residues) expressed in Escherichia coli BL21 cells using 5FAM-KPSILNASLTPETVKK as peptide substrate incubated for 3 hrs by fluorescence based analysis; design: species or system Human betaherpesvirus 6
[8] = Inhibition of amino terminal GST tagged HCMV protease L11A mutant (1 to 256 residues) expressed in Escherichia coli BL21 (DE3) cells using 5-carboxyfluorescein [FAM]-RGVVNASSRLAK as peptide substrate incubated for 3 hrs by fluorescence based analysis; design: species or system Human betaherpesvirus 5
[9] = Inhibition of amino terminal GST tagged HCMV protease F10A mutant (1 to 256 residues) expressed in Escherichia coli BL21 (DE3) cells using 5-carboxyfluorescein [FAM]-RGVVNASSRLAK as peptide substrate incubated for 3 hrs by fluorescence based analysis; design: species or system Human betaherpesvirus 5
[10] = Inhibition of N-terminal 6 His-tagged HHV6 protease F10A mutant (2 to 230 residues) expressed in Escherichia coli BL21 cells using 5FAM-KPSILNASLTPETVKK as peptide substrate incubated for 3 hrs by fluorescence based analysis; design: species or system Human betaherpesvirus 6

For `CC[C@H](C)[C@H](NC(=O)[C@H](Cc1ccccc1)NC(C)=O)C(=O)N[C@H](C(=O)NCC(=O)N[C@@H](Cc1c[nH]cn1)C(=O)N[C@@H](Cc1ccc(O)cc1)C(=O)N[C@@H](Cc1c[nH]c2ccccc12)C(=O)N[C@H](C(=O)N[C@@H](CCCNC(=N)N)C(=O)N[C@@H](Cc1ccccc1)C(=O)N[C@@H](CC(C)C)C(=O)N[C@@H](C)C(=O)N[C@@H](CS)C(=O)NCC(N)=O)C(C)C)[C@@H](C)O` (Ac-FITGHYWVRFLACG-NH2), the IC50 [1] was < 76 nM and the IC50 [2] was < 76 nM.
`Cc1ccc([C@@H](c2cn(C3CCCC3)nc2-c2ccccc2C)n2cccc(N3C[C@H](C(=O)NC45CCC(CC4)NC5=O)N(C)C3=O)c2=O)cc1` showed an IC50 [3] of 330 nM, an EC50 (Human betaherpesvirus 5) of 60000 nM and a Papp A→B at 2 h, 2 µM [4] of 1.3 ×10⁻⁶ cm/s. For the same compound, the IC50 [5] was 2500 nM and the CC50 at 120 h [6] was 51000 nM.
In the case of `CC[C@H](C)[C@H](NC(=O)[C@H](Cc1ccccc1)NC(C)=O)C(=O)N[C@H](C(=O)NCC(=O)N[C@@H](Cc1c[nH]cn1)C(=O)N[C@@H](Cc1ccc(O)cc1)C(=O)N[C@@H](Cc1c[nH]c2ccccc12)C(=O)N[C@H](C(=O)N[C@@H](CCCNC(=N)N)C(=O)N[C@@H](Cc1ccccc1)C(=O)N[C@@H](C)C(=O)N1CCC[C@H]1C(=O)N[C@@H](CS)C(=O)NCC(N)=O)C(C)C)[C@@H](C)O` (Ac-FITGHYWVRFAPCG-NH2), the IC50 [7] is reported as < 76 nM and the IC50 [8] is reported as < 76 nM.
In the case of `CC[C@H](C)[C@H](NC(=O)[C@H](Cc1ccccc1)NC(C)=O)C(=O)N[C@H](C(=O)NCC(=O)N[C@@H](Cc1c[nH]cn1)C(=O)N[C@@H](Cc1ccc(O)cc1)C(=O)N[C@@H](Cc1c[nH]c2ccccc12)C(=O)N[C@H](C(=O)N[C@@H](CCCNC(=N)N)C(=O)N[C@@H](C)C(=O)N[C@@H](CC(C)C)C(=O)N1CCC[C@H]1C(=O)N[C@@H](CS)C(=O)NCC(N)=O)C(C)C)[C@@H](C)O` (Ac-FITGHYWVRALPCG-NH2), the IC50 [9] is reported as < 76 nM and the IC50 [10] is reported as < 76 nM.
